# Test system: HCT116 induced xenograft
# Test: 21 days efficacy study in HCT116 induced xenograft model in mice
# Type: in vivo
# Details: 1004 5 mpk, epicatechin 30 mpk
# Protocol: Anticancer potential of epicatechin in combination with a PI3K/mTOR inhibitor is evaluated against cancer xenograft model in immunocompromised mice. CD1 nude mice are dosed for a period of 21 days with vehicle control, PI3K/mTOR inhibitor and a combination of PI3K/mTORinhibitor and epicatechin. […] The results are presented at Table 2, Table 3 and FIGS. 1a and 1b.
structure (smiles),measurement,setting,value
"C[C@H]1COCCN1c1nc(Oc2ccc(C(=O)N(C)C)cc2F)nc(-c2ccc(N)nc2)n1 [Compound 1004, (S)-4-((4-(6-aminopyridin-3-yl)-6-(3-methylmorpholino)-1,3,5-triazin-2-yl)oxy)-3-fluoro-N,N-dimethylbenzamide]","T/C % (Mean), Treated/Control on 21st day","CD1 nude mice, HCT116 xenograft, 21st day, oral",29%
same,"TGI % (Mean), tumor growth inhibition","CD1 nude mice, HCT116 xenograft, dosed 21 days, oral",80%
same,Tumor weight,HCT116 xenograft in mice,0.72 g

# Source: US20190262347A1, “COMPOSITION COMPRISING COMBINATION OF EPICATECHIN AND ANTI-CANCER COMPOUND” (SPHAERA PHARMA PVT. LTD., priority 2016, published 2019)
